# According to ChEMBL document CHEMBL5584255, “Synthesis and antibacterial medicinal evaluation of carbothioamido hydrazonyl thiazolylquinolone with multitargeting antimicrobial potential to combat increasingly global resistance” (Eur J Med Chem, 2024):
# Legend:
# Format in all cases: functional
# Staphylococcus aureus [1] = assay: Antibacterial activity against Staphylococcus aureus ATCC 25923 by microbroth dilution method
# Staphylococcus aureus [2] = assay: Antibacterial activity against Staphylococcus aureus ATCC 29213 by microbroth dilution method
# Staphylococcus aureus [3] = assay: Antibacterial activity against drug-resistant Staphylococcus aureus by microbroth dilution method
# Staphylococcus aureus [4] = assay: Antibacterial activity against methicillin-resistant Staphylococcus aureus N315 by microbroth dilution method
# Enterococcus faecalis = assay: Antibacterial activity against drug-resistant Enterococcus faecalis by microbroth dilution method
# Candida albicans [5] = assay: Antifungal activity against Candida albicans ATCC 90023
# Candida albicans [6] = assay: Antifungal activity against drug-resistant Candida albicans
# Candida parapsilosis = assay: Antifungal activity against Candida parapsilosis ATCC 22019; settings: Lodderomyces parapsilosis
# Candida tropicalis = assay: Antifungal activity against drug-resistant Candida tropicalis
# Aspergillus fumigatus = assay: Antifungal activity against Aspergillus fumigatus
# Escherichia coli [7] = assay: Antibacterial activity against Escherichia coli ATCC 25922 by microbroth dilution method
# Pseudomonas aeruginosa [8] = assay: Antibacterial activity against Pseudomonas aeruginosa ATCC 27853 by microbroth dilution method
# Escherichia coli [9] = assay: Antibacterial activity against drug-resistant Escherichia coli by microbroth dilution method
# Pseudomonas aeruginosa [10] = assay: Antibacterial activity against Pseudomonas aeruginosa by microbroth dilution method
# Klebsiella pneumoniae = assay: Antibacterial activity against Klebsiella pneumoniae by microbroth dilution method
# Acinetobacter baumannii = assay: Antibacterial activity against Acinetobacter baumannii by microbroth dilution method
SMILES,MIC (Staphylococcus aureus [1]) [µM],MIC (Staphylococcus aureus [2]) [µM],MIC (Staphylococcus aureus [3]) [µM],MIC (Staphylococcus aureus [4]) [µM],MIC (Enterococcus faecalis) [µM],MIC (Candida albicans [5]) [µM],MIC (Candida albicans [6]) [µM],MIC (Candida parapsilosis) [µM],MIC (Candida tropicalis) [µM],MIC (Aspergillus fumigatus) [µM],MIC (Escherichia coli [7]) [µM],MIC (Pseudomonas aeruginosa [8]) [µM],MIC (Escherichia coli [9]) [µM],MIC (Pseudomonas aeruginosa [10]) [µM],MIC (Klebsiella pneumoniae) [µM],MIC (Acinetobacter baumannii) [µM]
Nc1nc(Cn2cc(-c3csc(N)n3)c(=O)c3cc(F)c(Cl)cc32)cs1,39,20,39,315,315,39,157,79,315,315,20,39,157,157,315,157
C/C(Cn1cc(-c2csc(N)n2)c(=O)c2cc(F)ccc21)=N\NC(N)=S,82,82,82,164,328,328,328,656,328,656,164,656,328,656,656,328
CC(=O)Cn1cc(-c2csc(C)n2)c(=O)c2cc(F)c(F)cc21,766,766,766,1530,1530,766,1530,1530,766,766,1530,1530,1530,1530,766,1530
CCOC(=O)c1cn(C/C(C)=N/NC(N)=S)c2cc(Cl)c(F)cc2c1=O,643,643,643,643,643,643,1290,161,643,322,1290,322,1290,322,643,643
C/C(Cn1cc(-c2csc(C)n2)c(=O)c2cc(F)c(Cl)cc21)=N\NC(N)=S,605,605,605,605,605,605,605,605,303,1210,605,303,605,605,605,605
Cc1nc(-c2c[nH]c3cc(F)c(F)cc3c2=O)cs1,460,921,1840,460,460,115,460,1840,921,921,460,460,1840,921,1840,1840
CC(=O)Cn1cc(-c2csc(C)n2)c(=O)c2cc(F)ccc21,1620,405,1620,1620,1620,405,810,1620,810,810,1620,810,1620,810,810,1620
Cc1nc(-c2c[nH]c3cc(Cl)c(F)cc3c2=O)cs1,435,871,871,435,871,109,435,218,871,435,435,435,1740,871,871,435
